Measurements as given in the NIST ThermoML archive (doi:10.1021/je050414d).

Assay: xn = mol fraction of the nth substance listed
Conditions: 101 kPa, Liquid; for viscosity: Capillary tube (Ostwald / Ubbelohde) method

CCOC(=O)OCC [diethyl carbonate] + CC(C)O
Conditions | mass density [kg/m3] | viscosity [mPa·s]
293.15 K, x1 = 0.1015 | 812.95 | 1.586
293.15 K, x1 = 0.1993 | 837.12 | 1.252
293.15 K, x1 = 0.3027 | 861.52 | 1.073
293.15 K, x1 = 0.4029 | 880.88 | 0.946
293.15 K, x1 = 0.5018 | 901.57 | 0.865
293.15 K, x1 = 0.5905 | 914.48 | 0.827
293.15 K, x1 = 0.7267 | 936.22 | 0.791
293.15 K, x1 = 0.8053 | 947.93 | 0.781
293.15 K, x1 = 0.8494 | 954.32 | 0.782
293.15 K, x1 = 1 | 975 | 0.8
298.15 K, x1 = 0.1015 | 808.12 | 1.393
298.15 K, x1 = 0.1993 | 831.98 | 1.119
298.15 K, x1 = 0.3027 | 855.03 | 0.964
298.15 K, x1 = 0.4029 | 875.34 | 0.86
298.15 K, x1 = 0.5018 | 893.55 | 0.791
298.15 K, x1 = 0.5905 | 908.68 | 0.76
298.15 K, x1 = 0.7267 | 930.3 | 0.731
298.15 K, x1 = 0.8053 | 941.94 | 0.726
298.15 K, x1 = 0.8494 | 948.31 | 0.726
298.15 K, x1 = 1 | 968.97 | 0.746
303.15 K, x1 = 0.1015 | 803.27 | 1.223
303.15 K, x1 = 0.1993 | 826.84 | 0.996
303.15 K, x1 = 0.3027 | 849.57 | 0.867
303.15 K, x1 = 0.4029 | 869.48 | 0.782
303.15 K, x1 = 0.5018 | 887.62 | 0.726
303.15 K, x1 = 0.5905 | 902.71 | 0.7
303.15 K, x1 = 0.7267 | 924.09 | 0.677
303.15 K, x1 = 0.8053 | 935.6 | 0.674
303.15 K, x1 = 0.8494 | 941.89 | 0.676
303.15 K, x1 = 1 | 962.39 | 0.695
313.15 K, x1 = 0.1015 | 793.12 | 0.964
313.15 K, x1 = 0.1993 | 816.46 | 0.806
313.15 K, x1 = 0.3027 | 839.13 | 0.716
313.15 K, x1 = 0.4029 | 859.2 | 0.657
313.15 K, x1 = 0.5018 | 877.18 | 0.618
313.15 K, x1 = 0.5905 | 892.18 | 0.601
313.15 K, x1 = 0.7267 | 913.63 | 0.588
313.15 K, x1 = 0.8053 | 925.25 | 0.588
313.15 K, x1 = 0.8494 | 931.59 | 0.59
313.15 K, x1 = 1 | 952.32 | 0.61
323.15 K, x1 = 0.1015 | 781.71 | 0.78
323.15 K, x1 = 0.1993 | 804.58 | 0.668
323.15 K, x1 = 0.3027 | 826.95 | 0.604
323.15 K, x1 = 0.4029 | 846.73 | 0.562
323.15 K, x1 = 0.5018 | 864.62 | 0.535
323.15 K, x1 = 0.5905 | 879.49 | 0.524
323.15 K, x1 = 0.7267 | 900.94 | 0.517
323.15 K, x1 = 0.8053 | 912.58 | 0.519
323.15 K, x1 = 0.8494 | 918.93 | 0.521
323.15 K, x1 = 1 | 939.78 | 0.541
333.15 K, x1 = 0.1015 | 771.12 | 0.637
333.15 K, x1 = 0.1993 | 793.64 | 0.559
333.15 K, x1 = 0.3027 | 815.77 | 0.515
333.15 K, x1 = 0.4029 | 835.41 | 0.485
333.15 K, x1 = 0.5018 | 853.29 | 0.467
333.15 K, x1 = 0.5905 | 868.1 | 0.46
333.15 K, x1 = 0.7267 | 889.56 | 0.458
333.15 K, x1 = 0.8053 | 901.29 | 0.461
333.15 K, x1 = 0.8494 | 907.67 | 0.464
333.15 K, x1 = 1 | 928.69 | 0.483
343.15 K, x1 = 0.1015 | 760.13 | 0.523
343.15 K, x1 = 0.1993 | 782.3 | 0.47
343.15 K, x1 = 0.3027 | 804.17 | 0.44
343.15 K, x1 = 0.4029 | 823.53 | 0.421
343.15 K, x1 = 0.5018 | 841.14 | 0.41
343.15 K, x1 = 0.5905 | 855.92 | 0.407
343.15 K, x1 = 0.7267 | 877.3 | 0.409
343.15 K, x1 = 0.8053 | 888.96 | 0.413
343.15 K, x1 = 0.8494 | 895.36 | 0.417
343.15 K, x1 = 1 | 916.33 | 0.435

CCOC(=O)OCC [diethyl carbonate] + CO
Conditions | mass density [kg/m3] | viscosity [mPa·s]
293.15 K, x1 = 0.1045 | 839.93 | 0.599
293.15 K, x1 = 0.2128 | 874.69 | 0.622
293.15 K, x1 = 0.2835 | 892.08 | 0.634
293.15 K, x1 = 0.4025 | 915.12 | 0.655
293.15 K, x1 = 0.5161 | 932.04 | 0.679
293.15 K, x1 = 0.6057 | 942.83 | 0.7
293.15 K, x1 = 0.7015 | 952.67 | 0.723
293.15 K, x1 = 0.8 | 961.18 | 0.747
293.15 K, x1 = 0.8845 | 967.44 | 0.772
293.15 K, x1 = 1 | 975 | 0.801
298.15 K, x1 = 0.1045 | 834.64 | 0.567
298.15 K, x1 = 0.2128 | 869.33 | 0.588
298.15 K, x1 = 0.2835 | 886.65 | 0.598
298.15 K, x1 = 0.4025 | 909.56 | 0.616
298.15 K, x1 = 0.5161 | 926.35 | 0.637
298.15 K, x1 = 0.6057 | 937.11 | 0.656
298.15 K, x1 = 0.7015 | 946.89 | 0.677
298.15 K, x1 = 0.8 | 955.37 | 0.696
298.15 K, x1 = 0.8845 | 961.65 | 0.715
298.15 K, x1 = 1 | 968.97 | 0.746
303.15 K, x1 = 0.1045 | 829.8 | 0.527
303.15 K, x1 = 0.2128 | 864.12 | 0.546
303.15 K, x1 = 0.2835 | 881.42 | 0.556
303.15 K, x1 = 0.4025 | 904.25 | 0.573
303.15 K, x1 = 0.5161 | 921 | 0.593
303.15 K, x1 = 0.6057 | 931.74 | 0.611
303.15 K, x1 = 0.7015 | 941.49 | 0.63
303.15 K, x1 = 0.8 | 949.97 | 0.651
303.15 K, x1 = 0.8845 | 956.23 | 0.671
303.15 K, x1 = 1 | 962.39 | 0.695
313.15 K, x1 = 0.1045 | 819.68 | 0.462
313.15 K, x1 = 0.2128 | 853.64 | 0.48
313.15 K, x1 = 0.2835 | 870.71 | 0.49
313.15 K, x1 = 0.4025 | 893.3 | 0.503
313.15 K, x1 = 0.5161 | 909.94 | 0.521
313.15 K, x1 = 0.6057 | 920.59 | 0.537
313.15 K, x1 = 0.7015 | 930.26 | 0.556
313.15 K, x1 = 0.8 | 938.67 | 0.572
313.15 K, x1 = 0.8845 | 944.93 | 0.587
313.15 K, x1 = 1 | 952.32 | 0.61
323.15 K, x1 = 0.1045 | 809.45 | 0.408
323.15 K, x1 = 0.2128 | 843 | 0.424
323.15 K, x1 = 0.2835 | 859.86 | 0.432
323.15 K, x1 = 0.4025 | 882.25 | 0.444
323.15 K, x1 = 0.5161 | 898.72 | 0.461
323.15 K, x1 = 0.6057 | 909.28 | 0.477
323.15 K, x1 = 0.7015 | 918.88 | 0.493
323.15 K, x1 = 0.8 | 927.24 | 0.507
323.15 K, x1 = 0.8845 | 933.43 | 0.523
323.15 K, x1 = 1 | 939.78 | 0.541
333.15 K, x1 = 0.1045 | 796.31 | 0.363
333.15 K, x1 = 0.2128 | 830.09 | 0.376
333.15 K, x1 = 0.2835 | 847.11 | 0.384
333.15 K, x1 = 0.4025 | 869.76 | 0.397
333.15 K, x1 = 0.5161 | 886.44 | 0.41
333.15 K, x1 = 0.6057 | 897.15 | 0.426
333.15 K, x1 = 0.7015 | 906.9 | 0.441
333.15 K, x1 = 0.8 | 915.39 | 0.454
333.15 K, x1 = 0.8845 | 921.71 | 0.466
333.15 K, x1 = 1 | 928.69 | 0.483
